*1 amine or outer side, *2 acyl side, *3 side chain or, on linkers, in order; H or OH if unused. Where a SMILES comes first, the peptide text is derived from it. Bridges are numbered along the chain shown (N, C = ends). [ ]: non-standard residue; d: D form. The star is where a group is joined. X5 = O=C([C@H](Cc1c(F)c(F)c(O)c(F)c1F)N[*:1])[*:2]; X7 = O=C([C@H]1[C@@H](c2ccc(O)cc2)CCN1[*:1])[*:2]; Phenylacetyl(4-OMe) = COc1ccc(CC(=O)*)cc1; Fmoc = O=C(OCC1c2ccccc2-c2ccccc21)*; mTyr = N[C@@H](Cc1cccc(O)c1)C(=O)O; 1Naphthoyl = O=C(c1cccc2ccccc12)*; Hyp = O=C(O)[C@@H]1C[C@@H](O)CN1; Cha = N[C@@H](CC1CCCCC1)C(=O)O; Aic = NC1(C(=O)O)Cc2ccccc2C1; Chg = N[C@H](C(=O)O)C1CCCCC1; X2 = O=C(c1cccc2cc(O)ccc12)*; 3Amb = NCc1cccc(C(=O)O)c1; Pip = O=C(O)[C@@H]1CCCCN1; 3Abz = Nc1cccc(C(=O)O)c1; 2Abz = Nc1ccccc1C(=O)O; Inp = O=C(O)C1CCNCC1; Ava = NCCCCC(=O)O; GABA = NCCCC(=O)O; Sar = CNCC(=O)O
Tests used:
[1] = molecular target: T1, Integrin alpha-4/beta-1 (Homo sapiens, UniProt P05556+P13612); assay: Inhibition of fluorescently labeled alpha4-beta1 positive Ramos cells binding to immobilized VCAM-1.; type: cell-based
[2] = molecular target: T1, Integrin alpha-4/beta-1; assay: Inhibition of purified alpha-4 beta-1 binding to VCAM-1 was determined in an ELISA assay.; type: protein-complex assay

T1 sequence (P05556 whole entry): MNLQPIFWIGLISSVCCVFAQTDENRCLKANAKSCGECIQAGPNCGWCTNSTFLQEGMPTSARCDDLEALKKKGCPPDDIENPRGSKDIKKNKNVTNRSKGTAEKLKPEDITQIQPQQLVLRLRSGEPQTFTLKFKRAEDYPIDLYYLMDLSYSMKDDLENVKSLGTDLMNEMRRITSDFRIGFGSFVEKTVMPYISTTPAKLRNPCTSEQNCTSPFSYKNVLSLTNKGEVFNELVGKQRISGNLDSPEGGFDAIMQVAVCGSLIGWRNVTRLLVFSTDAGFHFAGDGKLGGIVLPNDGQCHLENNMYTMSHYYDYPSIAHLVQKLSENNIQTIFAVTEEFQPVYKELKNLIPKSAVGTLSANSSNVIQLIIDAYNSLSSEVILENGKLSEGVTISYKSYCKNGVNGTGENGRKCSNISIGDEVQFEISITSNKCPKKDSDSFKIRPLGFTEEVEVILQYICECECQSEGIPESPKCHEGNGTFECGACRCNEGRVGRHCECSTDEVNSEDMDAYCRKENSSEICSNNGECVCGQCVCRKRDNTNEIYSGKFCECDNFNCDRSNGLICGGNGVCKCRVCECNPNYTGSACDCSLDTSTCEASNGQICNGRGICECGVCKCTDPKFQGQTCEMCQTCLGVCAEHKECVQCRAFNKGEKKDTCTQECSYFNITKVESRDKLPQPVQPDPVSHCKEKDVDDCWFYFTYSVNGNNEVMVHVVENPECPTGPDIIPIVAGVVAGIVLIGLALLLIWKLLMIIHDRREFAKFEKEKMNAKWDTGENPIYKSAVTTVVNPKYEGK
T1 sequence (P13612 whole entry): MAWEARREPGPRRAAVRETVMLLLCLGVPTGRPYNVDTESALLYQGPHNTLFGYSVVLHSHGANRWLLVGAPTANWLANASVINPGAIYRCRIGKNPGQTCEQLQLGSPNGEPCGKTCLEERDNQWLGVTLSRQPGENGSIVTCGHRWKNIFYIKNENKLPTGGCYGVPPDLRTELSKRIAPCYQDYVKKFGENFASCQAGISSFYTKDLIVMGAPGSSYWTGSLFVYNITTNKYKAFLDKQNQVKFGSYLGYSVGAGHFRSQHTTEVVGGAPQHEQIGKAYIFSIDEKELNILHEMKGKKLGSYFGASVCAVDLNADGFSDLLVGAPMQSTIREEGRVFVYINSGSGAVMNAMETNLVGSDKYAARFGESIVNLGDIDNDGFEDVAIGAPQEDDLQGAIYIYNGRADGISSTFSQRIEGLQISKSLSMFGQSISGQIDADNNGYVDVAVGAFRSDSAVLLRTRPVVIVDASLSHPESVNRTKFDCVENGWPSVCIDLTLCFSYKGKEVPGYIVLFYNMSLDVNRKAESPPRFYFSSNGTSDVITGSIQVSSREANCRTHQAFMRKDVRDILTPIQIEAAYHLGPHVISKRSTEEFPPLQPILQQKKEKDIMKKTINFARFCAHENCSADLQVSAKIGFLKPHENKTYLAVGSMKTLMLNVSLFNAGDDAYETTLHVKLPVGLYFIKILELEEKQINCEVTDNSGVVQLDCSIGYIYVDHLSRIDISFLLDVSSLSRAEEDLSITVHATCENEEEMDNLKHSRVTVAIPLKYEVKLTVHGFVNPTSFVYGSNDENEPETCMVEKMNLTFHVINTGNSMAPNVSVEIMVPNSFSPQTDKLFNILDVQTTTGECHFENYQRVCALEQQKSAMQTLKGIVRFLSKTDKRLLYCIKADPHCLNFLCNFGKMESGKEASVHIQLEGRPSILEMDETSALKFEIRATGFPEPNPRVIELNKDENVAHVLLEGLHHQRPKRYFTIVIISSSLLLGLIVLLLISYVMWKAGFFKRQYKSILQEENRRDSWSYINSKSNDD

| SMILES | IC50 [1] | IC50 [2] |
| --- | --- | --- |
| CC(=O)N[C@@H](Cc1ccc(O)cc1)C(=O)N[C@H]1CSSC[C@@H](C(=O)O)NC(=O)[C@@H]2CCCN2C(=O)[C@H]([C@@H](C)O)NC1=O (Ac-YCTPC-OH; disulfide 2-5) | 0.32 µM | 0.005 µM |
| N[C@@H](Cc1c(F)c(F)c(O)c(F)c1F)C(=O)N[C@H]1CSSC[C@@H](C(=O)O)NC(=O)[C@@H]2CCCN2C(=O)[C@H](CO)NC1=O (H-[X5]CSPC-OH; disulfide 2-5) | 60 µM | 0.53 µM |
| N[C@@H](Cc1ccccc1)C(=O)N[C@H]1CSSC[C@@H](C(=O)O)NC(=O)[C@@H]2CCCN2C(=O)[C@H](CO)NC1=O (H-FCSPC-OH; disulfide 2-5) | 15 µM | 1.5 µM |
| CC(=O)N[C@@H](Cc1ccc(O)cc1)C(=O)N[C@H]1CSSC[C@@H](C(=O)O)NC(=O)[C@@H]2CCCCN2C(=O)[C@H](C)NC1=O (Ac-YCA[Pip]C-OH; disulfide 2-5) | 0.02 µM | 0.001 µM |
| N[C@@H](Cc1ccc(O)cc1)C(=O)N[C@H]1CSSC[C@@H](C(=O)O)NC(=O)CNC1=O (H-YCGC-OH; disulfide 2-4) | 250 µM | 5.8 µM |
| NC(N)=NCCC[C@H](NC(=O)[C@@H](N)Cc1ccc(O)cc1)C(=O)N[C@H]1CSSC[C@@H](C(=O)O)NC(=O)[C@@H]2CCCN2C(=O)[C@H](CC(=O)O)NC1=O (H-YRCDPC-OH; disulfide 3-6) | 6 µM | 0.11 µM |
| N[C@@H](Cc1cccc(O)c1)C(=O)N[C@H]1CSSC[C@@H](C(=O)O)NC(=O)[C@@H]2CCCN2C(=O)[C@H](CO)NC1=O (H-[mTyr]CSPC-OH; disulfide 2-5) | 25 µM | 0.25 µM |
| O=C(N[C@H]1CSSC[C@@H](C(=O)O)NC(=O)[C@@H]2CCCN2C(=O)[C@H](CO)NC1=O)c1cccc2cc(O)ccc12 (X2-CSPC-OH; disulfide 1-4) | 40 µM | 1.1 µM |
| N=C(N)NCCC[C@H](NC(=O)[C@@H](N)Cc1c[nH]c2ccccc12)C(=O)N[C@H]1CSSC[C@@H](C(=O)O)NC(=O)[C@@H]2CCCN2C(=O)[C@H](CC(=O)O)NC1=O (H-WRCDPC-OH; disulfide 3-6) | 100 µM | 1.2 µM |
| CC(=O)N[C@@H](Cc1ccc(O)cc1)C(=O)N[C@H]1CSSC[C@@H](C(N)=O)NC(=O)[C@@H]2CCCN2C(=O)[C@H](C)NC1=O (Ac-YCAPC-NH2; disulfide 2-5) | – | 0.32 µM |
| N[C@H](Cc1ccc(O)cc1)C(=O)N[C@H]1CSSC[C@@H](C(=O)O)NC(=O)[C@@H]2CCCN2C(=O)[C@H](CO)NC1=O | 126 µM | 0.89 µM |
| N[C@@H](Cc1ccc(O)cc1)C(=O)N[C@H]1CSSC[C@@H](C(=O)O)NC(=O)CCCCNC1=O (H-YC[Ava]C-OH; disulfide 2-4) | 17 µM | 0.41 µM |
| C[C@@H]1NC(=O)[C@@H](NC(=O)[C@@H](N)Cc2ccc(O)cc2)CSSC[C@@H](C(=O)O)NC1=O (H-YCAC-OH; disulfide 2-4) | 350 µM | 9.4 µM |
| C[C@@H]1NC(=O)[C@@H](NC(=O)[C@@H](N)Cc2ccc(O)cc2)CSSC[C@@H](C(=O)O)NC(=O)[C@H](C2CCCCC2)NC1=O (H-YCA[Chg]C-OH; disulfide 2-5) | – | 0.23 µM |
| C[C@@H]1NC(=O)[C@@H](NC(=O)[C@@H](N)Cc2ccc(O)cc2)CSSC[C@@H](C(=O)O)NC(=O)[C@H](Cc2ccccc2)NC1=O (H-YCAFC-OH; disulfide 2-5) | 182 µM | 2.8 µM |
| CC(=O)N[C@@H](Cc1ccc(O)cc1)C(=O)N[C@H]1CSSC[C@@H](C(=O)O)NC(=O)CNC(=O)[C@H](C)NC1=O (Ac-YCAGC-OH; disulfide 2-5) | – | 22 µM |
| CC[C@H](C)[C@@H]1NC(=O)[C@H](C)NC(=O)[C@@H](NC(=O)[C@@H](N)Cc2ccc(O)cc2)CSSC[C@@H](C(=O)O)NC1=O (H-YCAIC-OH; disulfide 2-5) | 0.94 µM | 0.023 µM |
| O=C(N[C@H]1CSSC[C@@H](C(=O)O)NC(=O)[C@@H]2CCCN2C(=O)[C@H](CO)NC1=O)c1cccc2ccccc12 (1Naphthoyl-CSPC-OH; disulfide 1-4) | 6.3 µM | 0.097 µM |
| N=C(N)NCCC[C@H](NC(=O)[C@@H](N)Cc1ccc(O)cc1)C(=O)N[C@H]1CSSC[C@@H](C(=O)O)NC(=O)[C@@H]2CCCN2C(=O)[C@H](CCC(=O)O)NC1=O (H-YRCEPC-OH; disulfide 3-6) | 30 µM | 0.09 µM |
| NC(=O)[C@@H]1CSSC[C@H](NC(=O)[C@@H](N)CCCN=C(N)N)C(=O)N[C@@H](CC(=O)O)C(=O)N2CCC[C@H]2C(=O)N1 (H-RCDPC-NH2; disulfide 2-5) | – | 50 µM |
| C[C@@H]1NC(=O)[C@@H](NC(=O)[C@@H](N)Cc2ccc(O)cc2)CSSC[C@@H](C(=O)O)NC(=O)[C@@H]2C[C@@H](O)CN2C1=O (H-YCA[Hyp]C-OH; disulfide 2-5) | – | 0.005 µM |
| NCCCC[C@H](NC(=O)[C@@H](N)Cc1ccc(O)cc1)C(=O)N[C@H]1CSSC[C@@H](C(=O)O)NC(=O)[C@@H]2CCCN2C(=O)[C@H](CC(=O)O)NC1=O (H-YKCDPC-OH; disulfide 3-6) | 5 µM | 0.15 µM |
| COc1ccc(CC(=O)N[C@H]2CSSC[C@@H](C(=O)O)NC(=O)[C@@H]3CCCN3C(=O)[C@H](CO)NC2=O)cc1 ({Phenylacetyl(4-OMe)}-CSPC-OH; disulfide 1-4) | 3 µM | 0.25 µM |

| SMILES | IC50 [1] | IC50 [2] |
| --- | --- | --- |
| NC(=O)[C@@H]1CSSC[C@H](NC(=O)[C@@H](N)Cc2ccc(O)cc2)C(=O)Nc2cccc(c2)C(=O)N1 (H-YC[3Abz]C-NH2; disulfide 2-4) | – | 12 µM |
| NCCCC[C@H](N)C(=O)N[C@H]1CSSC[C@@H](C(=O)O)NC(=O)[C@@H]2CCCN2C(=O)[C@H](CC(=O)O)NC1=O (H-KCDPC-OH; disulfide 2-5) | 1000 µM | 250 µM |
| CC(=O)N1CC[C@H](c2ccc(O)cc2)[C@@H]1C(=O)N[C@H]1CSSC[C@@H](C(=O)O)NC(=O)[C@@H]2CCCN2C(=O)[C@H](CO)NC1=O (Ac-[X7]CSPC-OH; disulfide 2-5) | – | 0.004 µM |
| C[C@H](NC(=O)[C@@H](N)Cc1ccc(O)cc1)C(=O)N[C@H]1CSSC[C@@H](C(=O)O)NC(=O)[C@@H]2CCCN2C(=O)[C@H](CC(=O)O)NC1=O (H-YACDPC-OH; disulfide 3-6) | 5 µM | 0.21 µM |
| N[C@@H](Cc1ccc(O)cc1)C(=O)N[C@H]1CSSC[C@@H](C(=O)O)NC(=O)c2cccc(c2)CNC1=O (H-YC[3Amb]C-OH; disulfide 2-4) | 210 µM | 6 µM |
| C[C@@H]1NC(=O)[C@@H]2CCCN2C(=O)[C@@H](NC(=O)[C@@H](N)Cc2ccc(O)cc2)CSSC[C@@H](C(=O)O)NC1=O (H-YCPAC-OH; disulfide 2-5) | 14 µM | 0.23 µM |
| N[C@@H](Cc1ccc(O)cc1)C(=O)N[C@H]1CSSC[C@@H](C(=O)O)NC(=O)c2ccccc2NC1=O (H-YC[2Abz]C-OH; disulfide 2-4) | 80 µM | 1.3 µM |
| CC(C)C[C@@H]1NC(=O)[C@H](C)NC(=O)[C@@H](NC(=O)[C@@H](N)Cc2ccc(O)cc2)CSSC[C@@H](C(=O)O)NC1=O (H-YCALC-OH; disulfide 2-5) | 10.5 µM | 0.034 µM |
| N[C@@H](Cc1ccc(O)cc1)C(=O)N[C@H]1CSSC[C@@H](C(=O)O)NC(=O)CCCNC1=O (H-YC[GABA]C-OH; disulfide 2-4) | 1 µM | 0.038 µM |
| N=C(N)NCCC[C@H](NC(=O)OCC1c2ccccc2-c2ccccc21)C(=O)N[C@H]1CSSC[C@@H](C(=O)O)NC(=O)[C@@H]2CCCN2C(=O)[C@H](CC(=O)O)NC1=O (Fmoc-RCDPC-OH; disulfide 2-5) | 15 µM | 0.13 µM |
| CC(=O)N[C@@H](Cc1ccc(O)cc1)C(=O)N[C@H]1CSSC[C@@H](C(=O)O)NC(=O)CN(C)C(=O)[C@H](C)NC1=O (Ac-YCA[Sar]C-OH; disulfide 2-5) | – | 0.71 µM |
| N=C(N)NCCC[C@H](NC(=O)[C@@H](N)Cc1ccc(O)cc1)C(=O)N[C@H]1CSSC[C@@H](C(=O)O)NC(=O)[C@@H]2CCCN2C(=O)[C@H](CC(N)=O)NC1=O (H-YRCNPC-OH; disulfide 3-6) | 7 µM | 0.04 µM |
| N[C@@H](Cc1ccc(O)cc1)C(=O)N[C@H]1CSSC[C@@H](C(=O)O)NC(=O)C2CCC(CC2)CNC1=O | 19 µM | 0.1 µM |
| CC1CNC(=O)[C@@H](NC(=O)[C@@H](N)Cc2ccc(O)cc2)CSSC[C@@H](C(=O)O)NC1=O (some centres undefined) | 2.7 µM | 0.047 µM |
| CC(=O)N[C@@H](Cc1ccc(O)cc1)C(=O)N[C@H]1CSSC[C@@H](C(=O)O)NC(=O)[C@@H]2CCCN2C(=O)[C@H](Cc2ccc(O)cc2)NC1=O (Ac-YCYPC-OH; disulfide 2-5) | 0.23 µM | 0.003 µM |
| O=C(N[C@H]1CSSC[C@@H](C(=O)O)NC(=O)[C@@H]2CCCN2C(=O)[C@H](CO)NC1=O)C1CCNCC1 (H-[Inp]CSPC-OH; disulfide 2-5) | 50 µM | 4.6 µM |
| N[C@@H](Cc1ccc(O)cc1)C(=O)N[C@H]1CSSC[C@@H](C(=O)O)NC(=O)[C@H](C2CCCCC2)NC1=O (H-YC[Chg]C-OH; disulfide 2-4) | – | 115 µM |
| CC(C)C[C@H](N)C(=O)N[C@@H](CCCNC(=N)N)C(=O)N[C@H]1CSSC[C@@H](C(=O)O)NC(=O)[C@@H]2CCCN2C(=O)[C@H](CC(=O)O)NC1=O (H-LRCDPC-OH; disulfide 3-6) | 250 µM | 21 µM |
| C[C@@H]1NC(=O)[C@@H](NC(=O)[C@@H](N)Cc2ccc(O)cc2)CSSC[C@@H](C(=O)O)NC(=O)[C@@H]2CCCN2C1=O (H-YCAPC-OH; disulfide 2-5) | 0.12 µM | 0.005 µM |
| N[C@@H](Cc1ccc(O)cc1)C(=O)N[C@H]1CSSC[C@@H](C(=O)O)NC(=O)C2CCN(CC2)C1=O (H-YC[Inp]C-OH; disulfide 2-4) | 1.5 µM | 0.031 µM |
| N[C@@H](Cc1ccc(O)cc1)C(=O)N[C@H]1CSSC[C@@H](C(=O)O)NC(=O)[C@H](CC2CCCCC2)NC1=O (H-YC[Cha]C-OH; disulfide 2-4) | – | 18 µM |
| C[C@@H]1NC(=O)[C@@H](NC(=O)[C@@H](N)Cc2ccc(O)cc2)CSSC[C@@H](C(=O)O)NC(=O)C2(Cc3ccccc3C2)NC1=O (H-YCA[Aic]C-OH; disulfide 2-5) | – | 36 µM |

Source: ChEMBL document CHEMBL1130186, “Potent alpha 4 beta 1 peptide antagonists as potential anti-inflammatory agents” (J Med Chem, 1997)
